≈ marks a conversion by molar mass, not a printed value. Values belong to the molecule of their own block, whether it stands above or below them.
How the values were obtained:
[1] = biological target: T1, Receptor tyrosine-protein kinase erbB-2 (Homo sapiens, UniProt P04626); experiment: Inhibition of ebrB2 expressed in human MCF7 cells by autophosphorylation assay; format: cell-based
[2] = biological target: Voltage-gated inwardly rectifying potassium channel KCNH2 (Homo sapiens, UniProt Q12809)
[3] = species: Mus musculus; experiment: animal or person; settings: BT474c, po, 8 h, read-out: Inhibition
[4] = Fraction unbound ligand in Han Wistar rat plasma protein; format: ADME, cell-free
[5] = Volume of distribution at steady state in Han Wistar rat at 2 mg/kg, iv and 5 mg/kg, po; format: ADME, organism-based; settings: in vivo, read-out: Vdss
[6] = Volume of distribution at steady state in Beagle dog at 1 mg/kg, iv and 2 mg/kg, po; format: ADME, organism-based, Canis lupus familiaris; settings: in vivo, read-out: Vdss
[7] = Bioavailability in Han Wistar rat at 2 mg/kg, iv and 5 mg/kg, po; format: ADME, organism-based; settings: in vivo
[8] = test system: Rattus norvegicus; experiment: Clearance in Han Wistar rat assessed as hepatic blood flow at 2 mg/kg, iv and 5 mg/kg, po; format: ADME, organism-based, Liver; settings: in vivo
[9] = Fraction unbound ligand in Beagle dog at 0.2 mg/kg, iv and 0.4 mg/kg, po; format: ADME, organism-based, Canis lupus familiaris; settings: in vivo
[10] = test system: Canis familiaris; experiment: Clearance in Beagle dog assessed as hepatic blood flow at 1 mg/kg, iv and 2 mg/kg, po; format: ADME, organism-based, Canis lupus familiaris, Liver; settings: in vivo
[11] = biological target: Epidermal growth factor receptor (Homo sapiens, UniProt P00533)
[12] = species: Mus musculus; experiment: animal or person; settings: BT474c, po, 1 h, read-out: Inhibition
[13] = Bioavailability in Beagle dog at 1 mg/kg, iv and 2 mg/kg, po; format: ADME, organism-based, Canis lupus familiaris; settings: in vivo
[14] = Partition coefficient, log D at pH 7.4; format: physicochemical; settings: octanol/water
[15] = test system: KB; experiment: cells; settings: Homo sapiens
[16] = Solubility in aqueous phosphate buffer at pH 7.4 after 24 hrs; format: physicochemical
[17] = Fraction unbound ligand in mouse plasma protein; format: ADME, cell-free
[18] = species: Mus musculus; experiment: animal or person; settings: BT474c, po, 8 h, read-out: Inhibition; remark: listed apart in the source
[19] = Bioavailability in Beagle dog at 0.2 mg/kg, iv and 0.4 mg/kg, po; format: ADME, organism-based, Canis lupus familiaris; settings: in vivo
[20] = biological target: T1, Receptor tyrosine-protein kinase erbB-2; experiment: Inhibition of ebrB2
[21] = cells; settings: Homo sapiens, BT474c
[22] = test system: Canis familiaris; experiment: Clearance in Beagle dog assessed as hepatic blood flow at 0.2 mg/kg, iv and 0.4 mg/kg, po; format: ADME, organism-based, Canis lupus familiaris, Liver; settings: in vivo
[23] = species: Mus musculus; experiment: animal or person; settings: BT474c, po, 1 h, read-out: Inhibition; remark: listed apart in the source
[24] = Volume of distribution at steady state in Beagle dog at 0.2 mg/kg, iv and 0.4 mg/kg, po; format: ADME, organism-based, Canis lupus familiaris; settings: in vivo, read-out: Vdss
[25] = Bioavailability in Han Wistar rat at 0.4 mg/kg, iv and 1 mg/kg, po; format: ADME, organism-based; settings: in vivo
[26] = Volume of distribution at steady state in Han Wistar rat at 0.4 mg/kg, iv and 1 mg/kg, po; format: ADME, organism-based; settings: in vivo, read-out: Vdss
[27] = test system: Rattus norvegicus; experiment: Clearance in Han Wistar rat assessed as hepatic blood flow at 0.4 mg/kg, iv and 1 mg/kg, po; format: ADME, organism-based, Liver; settings: in vivo
[28] = Dissociation constant, pKa of the compound; format: physicochemical

Chain of Voltage-gated inwardly rectifying potassium channel KCNH2 (Q12809 whole entry): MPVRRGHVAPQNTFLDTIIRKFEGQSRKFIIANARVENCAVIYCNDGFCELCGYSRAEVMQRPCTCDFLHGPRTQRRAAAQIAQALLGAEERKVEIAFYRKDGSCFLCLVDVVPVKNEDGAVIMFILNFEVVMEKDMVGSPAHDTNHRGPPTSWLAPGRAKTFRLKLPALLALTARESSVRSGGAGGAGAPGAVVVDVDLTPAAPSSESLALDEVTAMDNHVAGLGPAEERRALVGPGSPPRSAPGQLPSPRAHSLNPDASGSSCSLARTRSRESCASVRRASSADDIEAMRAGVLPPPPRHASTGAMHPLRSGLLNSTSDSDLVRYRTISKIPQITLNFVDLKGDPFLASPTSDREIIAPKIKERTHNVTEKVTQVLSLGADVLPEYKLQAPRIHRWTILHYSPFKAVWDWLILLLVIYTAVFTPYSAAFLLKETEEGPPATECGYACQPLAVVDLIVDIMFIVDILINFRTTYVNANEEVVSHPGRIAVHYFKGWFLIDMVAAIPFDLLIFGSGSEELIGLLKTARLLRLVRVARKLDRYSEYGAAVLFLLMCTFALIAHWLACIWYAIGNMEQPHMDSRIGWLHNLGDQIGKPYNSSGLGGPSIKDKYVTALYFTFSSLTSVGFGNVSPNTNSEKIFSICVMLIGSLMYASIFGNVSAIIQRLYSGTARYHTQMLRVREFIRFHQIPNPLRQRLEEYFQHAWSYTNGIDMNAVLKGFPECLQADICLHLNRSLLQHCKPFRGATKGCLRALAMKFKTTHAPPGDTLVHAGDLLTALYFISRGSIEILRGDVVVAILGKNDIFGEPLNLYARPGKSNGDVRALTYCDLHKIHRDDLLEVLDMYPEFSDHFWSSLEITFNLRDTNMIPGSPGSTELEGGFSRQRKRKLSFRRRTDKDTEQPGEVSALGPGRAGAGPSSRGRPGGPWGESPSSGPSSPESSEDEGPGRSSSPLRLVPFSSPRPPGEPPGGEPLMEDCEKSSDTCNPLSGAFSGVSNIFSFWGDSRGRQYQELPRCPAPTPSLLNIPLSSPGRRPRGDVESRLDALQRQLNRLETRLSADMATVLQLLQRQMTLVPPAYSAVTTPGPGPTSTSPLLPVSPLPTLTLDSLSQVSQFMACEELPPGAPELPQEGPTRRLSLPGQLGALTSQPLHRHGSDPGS
T1 sequence (P04626 whole entry): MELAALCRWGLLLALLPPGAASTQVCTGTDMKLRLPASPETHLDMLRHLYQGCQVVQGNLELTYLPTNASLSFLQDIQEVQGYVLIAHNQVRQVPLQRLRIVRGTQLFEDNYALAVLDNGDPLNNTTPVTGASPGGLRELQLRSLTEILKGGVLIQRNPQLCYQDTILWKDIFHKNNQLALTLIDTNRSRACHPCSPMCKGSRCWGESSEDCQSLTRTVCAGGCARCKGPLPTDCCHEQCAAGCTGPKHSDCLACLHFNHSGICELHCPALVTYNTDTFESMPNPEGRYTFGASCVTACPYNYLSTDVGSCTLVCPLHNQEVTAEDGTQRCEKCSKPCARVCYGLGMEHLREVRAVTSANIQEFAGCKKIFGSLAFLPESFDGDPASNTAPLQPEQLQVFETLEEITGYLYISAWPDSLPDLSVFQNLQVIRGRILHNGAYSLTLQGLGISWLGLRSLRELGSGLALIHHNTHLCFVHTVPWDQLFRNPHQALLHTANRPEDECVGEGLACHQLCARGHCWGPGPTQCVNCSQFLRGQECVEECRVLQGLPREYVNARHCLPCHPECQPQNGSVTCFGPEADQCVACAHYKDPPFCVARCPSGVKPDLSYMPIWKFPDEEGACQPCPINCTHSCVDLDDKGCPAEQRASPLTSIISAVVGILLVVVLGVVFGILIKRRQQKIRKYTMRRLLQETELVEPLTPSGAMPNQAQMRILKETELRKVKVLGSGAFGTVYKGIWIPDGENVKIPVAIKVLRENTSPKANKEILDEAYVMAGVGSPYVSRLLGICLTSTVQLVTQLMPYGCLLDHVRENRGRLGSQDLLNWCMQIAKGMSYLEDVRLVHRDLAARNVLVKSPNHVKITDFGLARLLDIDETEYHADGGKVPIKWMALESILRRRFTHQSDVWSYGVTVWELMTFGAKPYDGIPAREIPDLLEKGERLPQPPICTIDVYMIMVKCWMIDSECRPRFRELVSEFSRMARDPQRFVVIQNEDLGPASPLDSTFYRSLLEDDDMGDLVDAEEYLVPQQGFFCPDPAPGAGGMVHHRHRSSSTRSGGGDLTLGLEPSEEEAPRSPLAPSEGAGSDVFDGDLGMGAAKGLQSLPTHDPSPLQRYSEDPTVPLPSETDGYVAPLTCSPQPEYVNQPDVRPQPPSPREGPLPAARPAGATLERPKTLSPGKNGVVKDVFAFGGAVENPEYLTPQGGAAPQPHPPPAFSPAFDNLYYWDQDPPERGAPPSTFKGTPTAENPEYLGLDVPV
Chain of Epidermal growth factor receptor (P00533 whole entry): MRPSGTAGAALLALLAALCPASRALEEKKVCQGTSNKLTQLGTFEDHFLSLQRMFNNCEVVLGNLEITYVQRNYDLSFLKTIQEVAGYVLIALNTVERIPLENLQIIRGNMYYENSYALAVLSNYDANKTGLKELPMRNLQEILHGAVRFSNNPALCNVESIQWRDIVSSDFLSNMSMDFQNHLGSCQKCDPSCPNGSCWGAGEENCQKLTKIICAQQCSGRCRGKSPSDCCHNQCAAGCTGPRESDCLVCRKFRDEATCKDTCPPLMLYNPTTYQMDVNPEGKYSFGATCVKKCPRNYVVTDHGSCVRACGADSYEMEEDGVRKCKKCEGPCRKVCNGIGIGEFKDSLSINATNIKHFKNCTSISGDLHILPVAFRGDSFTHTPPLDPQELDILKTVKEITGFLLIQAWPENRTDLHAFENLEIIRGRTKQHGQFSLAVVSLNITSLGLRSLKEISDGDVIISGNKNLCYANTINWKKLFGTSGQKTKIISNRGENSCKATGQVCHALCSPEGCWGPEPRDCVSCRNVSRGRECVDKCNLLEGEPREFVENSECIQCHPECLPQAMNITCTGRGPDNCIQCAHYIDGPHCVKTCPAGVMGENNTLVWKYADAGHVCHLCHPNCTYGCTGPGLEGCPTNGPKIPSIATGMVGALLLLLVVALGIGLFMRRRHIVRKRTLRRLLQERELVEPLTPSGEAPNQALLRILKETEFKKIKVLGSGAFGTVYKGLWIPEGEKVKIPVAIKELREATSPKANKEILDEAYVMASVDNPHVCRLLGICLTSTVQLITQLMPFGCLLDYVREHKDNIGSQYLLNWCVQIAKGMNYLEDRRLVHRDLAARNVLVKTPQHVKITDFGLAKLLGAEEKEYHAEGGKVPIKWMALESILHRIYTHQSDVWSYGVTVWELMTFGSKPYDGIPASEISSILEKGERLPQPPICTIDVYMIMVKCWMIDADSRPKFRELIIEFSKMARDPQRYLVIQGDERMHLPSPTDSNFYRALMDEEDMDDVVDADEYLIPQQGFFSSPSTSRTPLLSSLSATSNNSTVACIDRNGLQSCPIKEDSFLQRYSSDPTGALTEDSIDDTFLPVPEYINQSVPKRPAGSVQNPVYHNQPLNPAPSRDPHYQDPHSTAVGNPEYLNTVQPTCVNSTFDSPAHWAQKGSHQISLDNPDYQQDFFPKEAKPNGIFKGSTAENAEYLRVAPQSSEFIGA

IC50 [1]: 120 nM
SMILES: CN(CCO)C(=O)COc1cccc2ncnc(Nc3ccc(OCc4ccccn4)c(Cl)c3)c12

IC50 [1]: 180 nM
SMILES: NC(=O)COc1cccc2ncnc(Nc3ccc(OCc4ccccn4)c(Cl)c3)c12

IC50 [1]: 66 nM
SMILES: CNC(=O)[C@@H](C)Oc1cccc2ncnc(Nc3ccc(OCc4ccccn4)c(Cl)c3)c12
IC50 [2]: 32000 nM

IC50 [1]: 79 nM
SMILES: C[C@H](Oc1cccc2ncnc(Nc3ccc(OCc4ccccn4)c(Cl)c3)c12)C(=O)N(C)CCO

fraction unbound [4]: 0.017 | Vd [5]: 0.9 L/kg | Vd [6]: 1.8 L/kg | bioavailability [7]: 67% | %hepatic blood flow [8]: 12% | fraction unbound [9]: 0.025 | %hepatic blood flow [10]: 48% | IC50 [11]: 1100 nM | bioavailability [13]: 47% | logD [14]: > 4.3 | IC50 [15]: 2700 nM | solubility at 24 h [16]: 28 µM (≈ 12.8 µg/mL) | fraction unbound [17]: 0.011
SMILES: Cc1ccc(Oc2ccc(Nc3ncnc4cccc(O[C@H](C)C(=O)N(C)C)c34)cc2C)cn1
inhibition in vivo at 100 mg/kg [3]: 55% | IC50 [2]: 8000 nM | inhibition in vivo at 100 mg/kg [12]: 37%

IC50 [1]: 130 nM
SMILES: Cc1ccc(Oc2ccc(Nc3ncnc4cccc(OCC(=O)N(C)CCO)c34)cc2C)cn1

bioavailability [19]: 33% | fraction unbound [4]: 0.029 | Vd [5]: 1 L/kg | IC50 [20]: 2 nM | IC50 [21]: 270 nM | bioavailability [7]: 34% | %hepatic blood flow [8]: 23% | %hepatic blood flow [22]: 34% | fraction unbound [9]: 0.038 | IC50 [1]: 69 nM | IC50 [11]: 2000 nM | logD [14]: 3.8 | IC50 [15]: 23000 nM | solubility at 24 h [16]: 66 µM (≈ 32.2 µg/mL) | fraction unbound [17]: 0.025 | Vd [24]: 0.9 L/kg
SMILES: Cc1ccc(Oc2ccc(Nc3ncnc4cccc(O[C@H](C)C(=O)N(C)CCO)c34)cc2C)cn1
inhibition in vivo at 100 mg/kg [18]: 36% | inhibition in vivo at 100 mg/kg [23]: 78%

IC50 [1]: 35 nM
SMILES: Cc1ccc(Oc2ccc(Nc3ncnc4cccc(O[C@@H](C)C(=O)N5CCOCC5)c34)cc2C)cn1

IC50 [1]: 22 nM
SMILES: Cc1ccc(Oc2ccc(Nc3ncnc4cccc(O[C@H](C)C(=O)N5CCOCC5)c34)cc2C)cn1

IC50 [1]: 78 nM
SMILES: Cc1ccc(Oc2ccc(Nc3ncnc4cccc(O[C@@H](C)C(=O)N(C)CCO)c34)cc2C)cn1

IC50 [1]: 200 nM
SMILES: Cc1ccc(Oc2ccc(Nc3ncnc4cccc(O[C@H](C)C(=O)NCCO)c34)cc2C)cn1

IC50 [1]: 120 nM
SMILES: COCCN(C)C(=O)[C@@H](C)Oc1cccc2ncnc(Nc3ccc(Oc4ccc(C)nc4)c(C)c3)c12

IC50 [1]: 140 nM
SMILES: O=C(COc1cccc2ncnc(Nc3ccc(OCc4ccccn4)c(Cl)c3)c12)N1CCOCC1

IC50 [1]: 23 nM
SMILES: COc1cc(Nc2ncnc3cccc(O[C@H](C)C(=O)N4CCOCC4)c23)ccc1Oc1ccc(C)nc1

bioavailability [19]: 89% | fraction unbound [4]: 0.004 | bioavailability [25]: 75% | IC50 [20]: < 1 nM | IC50 [21]: 100 nM | %hepatic blood flow [22]: 24% | fraction unbound [9]: 0.011 | IC50 [1]: 34 nM | IC50 [11]: 22 nM | Vd [26]: 0.5 L/kg | %hepatic blood flow [27]: 4.3% | logD [14]: 3.7 | IC50 [15]: 1000 nM | solubility at 24 h [16]: 6 µM (≈ 2.87 µg/mL) | Vd [24]: 1 L/kg
SMILES: C[C@@H](Oc1cccc2ncnc(Nc3ccc(OCc4ccccn4)c(Cl)c3)c12)C(=O)N(C)C
IC50 [2]: 14000 nM

pKa [28]: 8.1
SMILES: CN1CCC(Oc2cccc3ncnc(Nc4ccc(OCc5ccccn5)c(Cl)c4)c23)CC1
IC50 [2]: 5000 nM

IC50 [1]: 31 nM
SMILES: C[C@@H](Oc1cccc2ncnc(Nc3ccc(OCc4ccccn4)c(Cl)c3)c12)C(=O)N(C)CCO

IC50 [1]: 43 nM
SMILES: C[C@H](Oc1cccc2ncnc(Nc3ccc(OCc4ccccn4)c(Cl)c3)c12)C(=O)N(C)C
IC50 [2]: 10000 nM

SMILES: Cc1ccc(Oc2ccc(Nc3ncnc4cccc(O[C@@H](C)C(=O)N(C)C)c34)cc2C)cn1
IC50 [2]: 11000 nM

SMILES: CN1CCN(C(=O)COc2cccc3ncnc(Nc4ccc(OCc5ccccn5)c(Cl)c4)c23)CC1
IC50 [1]: 350 nM

IC50 [1]: 27 nM
SMILES: Cc1ccc(Oc2ccc(Nc3ncnc4cccc(O[C@H](C)C(=O)N5CCOCC5)c34)cc2Cl)cn1

IC50 [1]: 19 nM
SMILES: C[C@@H](Oc1cccc2ncnc(Nc3ccc(OCc4ccccn4)c(Cl)c3)c12)C(=O)N1CCOCC1
IC50 [2]: 10000 nM

Source: ChEMBL document CHEMBL1141561, “A new series of neutral 5-substituted 4-anilinoquinazolines as potent, orally active inhibitors of erbB2 receptor tyrosine kinase” (Bioorg Med Chem Lett, 2008)
